Tests used:
HCT116 cells = test: Antitumor experiment of tumor HCT116-bearing mice; type: in vivo; details: 7-day dosage by single administration, 7 days
Description: During the experiment, the mice were inoculated with HCT116 cells (×10^7) in armpits. […] Seven days later, the mice were sacrificed by decollation. The tumors were removed, and the mice and the tumors were weighed separately.

[1] = tested on: chronically stressed rats; test: Forced swimming test of rats (chronic stress model); type: in vivo; details: vs model control group
Description: (§1) The rats in the normal control group were raised normally under a condition without any stimulation except for weighing body weight, measuring body temperature, and subjected to sugar test. All of other groups were subjected to stimulations of same type and same strength. During the experiment, different types of stimulations were applied in an unpredictable manner, and the same type of stimulation was enhanced each time.
(§2) The chronic stress course was 20 days in total, once per day, from 9:00 AM to 2:00 PM. The stress protocol was shown as follows: horizontally shaking at a high speed for 45 min; nipping tails (1 cm from the tail root): 1 min; depriving of water for 24 h; forbidding moving for 1.5 h; fasting for 24 h; stimulating with ice water (water temperature: 10° C.) for 5 min; electric shocking (1 mA, time course: is, 1 shock/min) the bottoms of feet for 30 min; changing cages and raising separately for 24 h; forbidding moving for 2 h; nipping tails (1 cm from the root of tail) for 1 min; depriving of water for 24 h; horizontally shaking at a high speed for 1.5 h; fasting for 24 h; nipping tails (1 cm from the tail root): 1 min; electric shocking (1 mA, time course: 1 s, 1 shock/min) the bottoms of feet for 40 min; stimulating with ice water for 5 min; changing cages and raising separately for 24 h; horizontally shaking at a high speed for 60 min; electric shocking (1 mA, time course: 1 s, 1 shock/min) the bottoms of feet for 50 min; depriving of water for 24 h; forbidding moving for 2.5 h; and 24 h social isolation.
Please see FIG. 7. 24 hours before the formal test, rats were placed into a round glass container (height: 40 cm, diameter: 18 cm) filled with water (depth: 23 cm) with a temperature of 24±1° C., and forced to conduct swim training for 15 min. […] The accumulative immobile time within the last 4 min was observed and recorded for each rat. The immobile time is intended to mean the period within which the rat stops to struggle, floats in the water and keeps immobile, or only makes a few slight movements that are necessary to keep its head floating on the surface of water.

S-180 cells = test: Effect on apoptosis of tumor cells, cell cycle by flow cytometry; type: in vivo, mice; details: sarcoma cell cycle, S-180 tumor fluid, 7 days
Description: During the experiment, the mice were inoculated with S-180 cells (×10^7) in armpits. Seven days later, the mice were sacrificed by decollation and the tumors were removed. Tumor fluid was collected from tumors, and used for determining cell cycle by flow cytometry after ethanol fixation.

serum corticosterone = test: Determination of the content of serum corticosterone (chronic stress model); type: in vivo; details: stressed rats, day after 21-day stress
Description: as §1, §2
In this experiment, the content of serum corticosterone was measured by a competitive method, with its mechanism shown as follow: antigens in samples and enzyme-labeled antigens compete to bind antibodies in a solid phase. The more antigens exist in samples, the less enzyme-labeled antigens bind to the solid phase, thereby resulting in a fainter coloration.
On the next day after the end of the 21-day stress period, rats were sacrificed by decollation, and 5˜10 ml whole blood was collected. A portion of the collected whole blood was kept at room temperature for 20 min, followed by centrifugation at 1000 rpm for 10 min. Serum was then separated and stored at −80° C. The serum corticosterone detection kit was used for such detection.

male ICR mice = test: Tail suspension test in mice; type: in vivo; details: 18.4 mg/kg single administration, vs control group
Method: The tail suspension test was carried out for each of these groups on Days 3, 7 and 14 after administration, except that such experiment was not performed for the curcumin group on Day 14. Tails of the mice were taped on a special iron stand at 1 cm from the tips, whilst keeping the mice staying at a height of 50 cm from ground. Performance of the mice was observed within 6 min, and the accumulative immobile time within the last 4 min was recoded for each mouse.

Prostate cancer cell = test: Inhibitory effect on tumor cells, MTT method; type: cell-based; details: 25 μM, 72 h
Method: (§3) The tumor cells with a stable passage feature, including Hela tumor cells, renal cancer cells, breast cancer cells, gastric cancer cells, rectal cancer cells, pulmonary cancer cells, hepatic cancer cells HepG2, prostate cancer cells, esophageal cancer cells, sarcoma cells, glioma cells, melanoma cells, lymphoma cells, and bladder cancer cells, were counted under a microscope (×10^4), and cultured in a 96-well plate under CO2 saturated water vapor for 24 h.

Hela cell = test: Inhibitory effect on tumor cells, MTT method; type: cell-based; details: 25 μM, 72 h
Method: as §3

[2] = tested on: Rectal cancer cell HCT116; test: Inhibitory effect on tumor cells, MTT method; type: cell-based; details: Rectal cancer cell HCT116, 25 μM, 72 h
Method: as §3

Breast cancer cell BT474 = test: Inhibitory effect on tumor cells, MTT method; type: cell-based; details: Breast cancer cell BT474, 25 μM, 72 h
Method: as §3

[3] = tested on: Gastric cancer cell MGC80-3; test: Inhibitory effect on tumor cells, MTT method; type: cell-based; details: Gastric cancer cell MGC80-3, 25 μM, 72 h
Method: as §3

[4] = tested on: chronically stressed rats; test: Measurement of body temperature of chronically stressed rats; type: in vivo; details: for Body temperature after stress: chronic stress 21 days
Description: as §1
as §2, with “The” for “The chronic stress course was 20 days in total, once per day, from 9:00 AM to 2:00 PM. The”
The front part of a digital thermometer was coated with liquid paraffin, and then inserted into the anus of a rat with a depth of approximately 1 cm. The temperature was read twice accordingly and averaged.

[5] = 4.6 mg/kg subcutaneous once every 7 days
[6] = 9.2 mg/kg subcutaneous once every 7 days
[7] = 18.4 mg/kg subcutaneous once every 7 days

curcumin decanoate [long acting curcumin]
inhibitory rate of tumors (HCT116 cells; high dosage group): 49.3%
inhibitory rate of tumors (HCT116 cells; low dosage group): 29.6%
inhibitory rate of tumors (HCT116 cells; medium dosage group): 58.4%
reduced the accumulative immobile time of the forced swimming test ([1]; 4.6 mg/kg once every 7 days): 37.6%
reduced the accumulative immobile time of the forced swimming test ([1]; 9.2 mg/kg once every 7 days): 49.4%
reduced the accumulative immobile time of the forced swimming test ([1]; 18.4 mg/kg once every 7 days): 58.9%
APO % (apoptosis level of tumor cells) (S-180 cells): 44.7%
G1 % (S-180 cells): 64.9%
G2 % (S-180 cells): 1.0%
S % (S-180 cells): 34.1%
serum corticosterone (serum corticosterone; 4.6 mg/kg once every 7 days): 239.5 ± 33.7 nmol/L
serum corticosterone (serum corticosterone; 9.2 mg/kg once every 7 days): 222.9 ± 30.6 nmol/L
serum corticosterone (serum corticosterone; 18.4 mg/kg once every 7 days): 199.6 ± 28.0 nmol/L
reduced the accumulative immobile time (tail suspension) (male ICR mice; 3 days after administration): 50.7%
reduced the accumulative immobile time (tail suspension) (male ICR mice; 7 days after administration): 59.5%
reduced the accumulative immobile time (tail suspension) (male ICR mice; 14 days after administration): 31.8%
Inhibitory rate (%) (Prostate cancer cell): 39.7 ± 1.3%
Inhibitory rate (%) (Hela cell): 37.3 ± 2.4%
Inhibitory rate (%) [2]: 58.9 ± 2.1%
Inhibitory rate (%) (Breast cancer cell BT474): 52.7 ± 1.6%
Inhibitory rate (%) [3]: 42.6 ± 1.7%
Body temperature before stress [4, 5]: 37.06 ± 0.125 °C
Body temperature after stress [4, 5]: 37.40 ± 0.079 °C
Body temperature before stress [4, 6]: 37.06 ± 0.158 °C
Body temperature after stress [4, 6]: 37.45 ± 0.074 °C
Body temperature before stress [4, 7]: 37.00 ± 0.122 °C
Body temperature after stress [4, 7]: 37.48 ± 0.088 °C
